Target: Cyclin-dependent kinase 8 (CDK8) (Homo sapiens, UniProt P49336)
Experiment: LanthaScreen Eu kinase binding assay (TR-FRET displacement of Tracer […]), dose-response; […] inhibition at […] in 60-kinase panel

Sequence of Cyclin-dependent kinase 8 (CDK8) (P49336 whole entry): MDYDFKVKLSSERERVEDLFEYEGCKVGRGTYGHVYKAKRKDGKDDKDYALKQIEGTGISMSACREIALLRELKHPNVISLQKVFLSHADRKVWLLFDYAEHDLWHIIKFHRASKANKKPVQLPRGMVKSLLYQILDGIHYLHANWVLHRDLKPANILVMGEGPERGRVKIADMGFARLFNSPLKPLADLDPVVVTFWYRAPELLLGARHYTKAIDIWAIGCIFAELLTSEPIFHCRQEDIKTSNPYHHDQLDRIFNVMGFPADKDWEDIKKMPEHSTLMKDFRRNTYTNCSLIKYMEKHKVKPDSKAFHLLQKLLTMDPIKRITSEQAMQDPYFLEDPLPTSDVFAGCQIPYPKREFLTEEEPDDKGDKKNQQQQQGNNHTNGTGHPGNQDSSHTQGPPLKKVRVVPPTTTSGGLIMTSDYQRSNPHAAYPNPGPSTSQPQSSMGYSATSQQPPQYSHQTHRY
Sequence of Cyclin-dependent kinase 8 (CDK8) (P24863 whole entry partner): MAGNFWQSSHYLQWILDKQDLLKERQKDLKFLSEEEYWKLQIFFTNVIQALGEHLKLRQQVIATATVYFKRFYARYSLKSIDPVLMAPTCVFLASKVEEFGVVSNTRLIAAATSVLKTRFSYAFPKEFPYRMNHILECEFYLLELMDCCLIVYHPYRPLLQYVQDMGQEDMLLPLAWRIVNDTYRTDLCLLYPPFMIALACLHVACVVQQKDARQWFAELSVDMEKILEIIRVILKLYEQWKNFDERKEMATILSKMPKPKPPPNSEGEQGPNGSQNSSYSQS

IC50: 50.4 nM
Compound: O=C(Cc1nnc(-c2ccc3ncccc3c2)o1)NCc1ccc(F)cc1 [P162-0948]
